Assays:
[1] = organism: Rattus norvegicus; assay: Relaxation of rat aorta smooth muscle; type: functional, Muscle tissue
[2] = organism: Rattus norvegicus; assay: Relaxation of rat aorta smooth muscle precontracted with 30 mM KCl (Negative logarithm of molar concentration required); type: functional, organism-based; details: Muscle tissue

Row | Compound | EC50 [2] [nM] | Intrinsic activity [1] [%]
1 | CNC(=O)C1=CC(C)(C)Oc2ccc(C#N)cc21 | – | 66.6
2 | CC(C)NC(=O)C1=CC(C)(C)Oc2ccc([N+](=O)[O-])cc21 | 186 | 77.6
3 | CNC(=O)C1=CC(C)(C)Oc2ccc([N+](=O)[O-])cc21 | – | 61
4 | CC1(C)C=C(C(=O)NCCO)c2cc([N+](=O)[O-])ccc2O1 | 182 | 71.8
5 | CC(N/C(=N\C#N)Nc1ccncc1)C(C)(C)C (stereo unspecified) [PINACIDIL ANHYDROUS] | – | 91.9
6 | CC1(C)C=C(C(=O)NCCC#N)c2cc([N+](=O)[O-])ccc2O1 | – | 73.1
7 | CC1(C)C=C(C(N)=O)c2cc([N+](=O)[O-])ccc2O1 | 363 | 79.8
8 | CC1(C)Oc2ccc(C#N)cc2[C@H](N2CCCC2=O)[C@H]1O (single isomer, unassigned) [(-)-CROMAKALIM] | 170 | 74.7

More lines, in order of falling EC50 [2], values ahead:

Row | EC50 [2] [nM] | Compound | Intrinsic activity [1] [%]
9 | 32.4 | CC1(C)C=C(C(=O)NC2CC2)c2cc([N+](=O)[O-])ccc2O1 | 78
10 | 21.9 | CCCCNC(=O)C1=CC(C)(C)Oc2ccc([N+](=O)[O-])cc21 | 83.2
11 | 20.4 | CC1(C)C=C(C(=O)NCCF)c2cc([N+](=O)[O-])ccc2O1 | 81.6
12 | 7.94 | C#CCNC(=O)C1=CC(C)(C)Oc2ccc([N+](=O)[O-])cc21 | 80.2
13 | 6.61 | CC1(C)C=C(C(=O)NCC2CC2)c2cc([N+](=O)[O-])ccc2O1 | 89.3
14 | 5.75 | CCCNC(=O)C1=CC(C)(C)Oc2ccc([N+](=O)[O-])cc21 | 74.1
15 | 4.57 | CCNC(=O)C1=CC(C)(C)Oc2ccc([N+](=O)[O-])cc21 | 80.5

Reference: ChEMBL document CHEMBL1151578, “Benzopyran-4-carboxamide K+ channel openers” (Bioorg Med Chem Lett, 1993)
